Data: patent US20240082221A1, “COMPOSITIONS AND METHODS FOR THE IDENTIFICATION OF COMPOUNDS THAT PROTECT AGAINST LIPOFUSCIN CYTOTOXICITY” (priority 2021, published 2024)

System: XBP1s
Experiment: Intravitreal treatment of DKO mice, XBP1s immunostaining of RPE flat mounts
Format: in vivo, ABCA4−/− RDH8−/− double knock-out mice (DKO)
Details: 26 month old DKO mice, intraocular, a week later, vs mock treated eyes
Description: Animals. Pigmented ABCA4^−/− RDH8^−/− double knock-out mice (DKO), free of rd8 mutation, were purchased from Jackson laboratories and every 10 generations were in house backcrossed to the C57BL6J control strain, to prevent genetic drifts. Genotyping was performed at Transnetyx (Memphis, TN). Only mice with ABCA4, RDH8, RPE65-Leu450 but no crb1 mutations (retinal degeneration slow) were maintained in the colony. Controls C57BL/6J (Rpe65-Leu450, crb1negative) were also Jackson's lab. All mice were housed at Weill Cornell Medicine's animal facility under a 12 h light (˜10 lux)/12 h dark cycle environment or under complete darkness. Experimental manipulations in the dark were done under dim red light transmitted through a Kodak No. 1 safelight filter (transmittance >560 nm). No retinal degeneration or necroptosis markers were appreciably detected in 20 months or older C57BL6/N (Rpe65-Met450, crb1 positive) obtained from the NAI/NIH. All animal procedures and experiments were approved by the Animal Care and Use Committee of Weill Cornell Medical College in agreement with the guidelines established by the NIH Office of Laboratory Animal Welfare and the Association of Research for Vision and Ophthalmology (ARVO) statement for the use of animals in ophthalmic research. […]
Pharmacological treatment of mice. […] The exact volume of Mock reagent or Kira6 was determined by 10 μl Hamilton syringe. […]

## CC(C)(C)c1nc(-c2ccc(NC(=O)Nc3cccc(C(F)(F)F)c3)c3ccccc23)c2c(N)nccn12 [KIRA6]
  XBP1s staining of whole RPE flat mounts: decreased from the center to the periphery
